According to patent US20120088841A1, “COMPOSITION AND A METHOD OF TREATING CNS DISORDERS AND HYPERPIGMENTATION” (priority 2010, published 2012):
In brackets after ≈: the same amount, converted by molar mass. Several values for one entry are separate records, joined by “and”; a condition that tells them apart may be missing. Equal entries are not always repeated. Where two headings read alike, the source gives them in different places. Marks after values point to notes of the source that are not given here. Values belong to the compound of their own block, whether it stands above or below them.

Columns and labels:
[1] = system: B16F1 mouse melanoma cells; assay: Inhibition of α-MSH induced melanogenesis in B16F1 mouse melanoma cell line; type: cell-based; conditions: B16-F1, 216 h, 0.6 nM MSH, 9 days treatment, read-out: Inhibition of MSH induced Melanin IC50
Protocol: Melanin synthesis can be directly studied in live animal cells. B16F1 mouse melanoma cells were seeded in a 6 well microtiter plate at a seeding density of 5000 cells per well in 2 ml DMEM medium per well. After 24 hours of incubation in a CO2 incubator, melanin production is induced by 0.6 nM […] by replacing the medium with medium containing […]. The cells were then treated with the compound hydroxychavicol, crude betel leaf extract and the reference standard over a period of 9 days with renewal of […] containing medium and sample at regular intervals of 3 days. Control wells were maintained without sample treatment and only with the vehicle used for sample preparation. After the incubation period, the medium was removed and the cells were scraped and washed in PBS. Thereafter, melanin was extracted by 1N NaOH in boiling water bath for 5 minutes. The absorbance of the melanin extract was read at 405 nm in a microplate reader. The inhibitory effect of the samples is calculated based on the decrease of melanin formation. The dose dependent inhibitory activity of samples is calculated and the results are expressed as IC50 values using Graphpad prism software.

[2] = target: Mushroom Tyrosinase enzyme; assay: Tyrosinase inhibition; type: biochemical; conditions: 40 units Mushroom Tyrosinase, 0.7 mM L-Tyrosine disodium, 37° C.
Source text: Pigmentation is a multistep process critically dependent on the functional integrity of tyrosinase, the rate-limiting enzyme in melanin synthesis. Biosynthesis of melanin is initiated by the catalytic oxidation of tyrosine to 3, 4 dihydroxy phenylalanine (dopa) by tyrosinase. Subsequent reactions happen spontaneously eventually resulting in the synthesis of melanin. Under in vitro conditions, tyrosinase enzyme acts on L-Tyrosine forming a pink colored complex. This pink color intensity formed during the reaction is quenched in the presence of the inhibitor. The assay is performed in a 96 well clear microtitre plate. The compound hydroxychavicol, crude betel leaf extract and the reference standard in suitable vehicle (PBS or 0.2% DMSO) is pre incubated with 40 units of Mushroom Tyrosinase enzyme at 37° C. for 10 minutes. The reaction is initiated by adding 0.7 mM L-Tyrosine disodium and the absorbance is read after 10 minutes of incubation at 37° C. in FluostarOptima microplate reader at 492 nm. The dose dependent inhibitory activity of samples is calculated and the results are expressed as IC50 values using Graphpad prism software.

[3] = ORAC value (comparative data); conditions: invitro; higher is better
Source text: (§1) The results are as tabulated below in table 2.

TNF alpha = TNF alpha inhibition invitro (comparative data); type: cell-based; conditions: read-out: TNF alpha inhibition (IC50 μg/ml)
Source text: as §1

IFN-γ = assay: Estimation of intracellular cytokine IFN-γ in CD3+ T cells; type: in vivo, rats
Protocol: (§2) The injection was repeated on day 3.
Magnetic-bead Assisted Cell Sorting (MACS) separated the CD3+ T cells that were then permeabilised with 500 μl of FACS permeabilising solution (Becton Dickinson) for 10 min at room temperature. With this technique, specific cells that have antibody-coated micro beads are separated under a strong magnetic field magnetically from the whole cell suspension according to their cell-surface antigen. After centrifugation, cells were incubated with anti-rat IFN-γ-PE for 30 min in the dark at room temperature. After washing in PBS, cells were fixed in […] of 1% formaldehyde PBS. A total of 10,000-gated events were acquired in on a FACS BD LSR II flow cytometer (Bani et al., 2005, 2006) and analysis was done on flow cytometer using Cell Quest Pro software (BD Biosciences).

CD19+ cell population = assay: Flow cytometric evaluation of cell-surface marker CD19+ in peripheral blood lymphocytes; type: in vivo, rats
Protocol: as §2
(§3) CD3 monoclonal antibody that reacts with the CD3 differentiation antigen expressed on MHC class I T cytotoxic cells as well as MHC class II T helper cells, was used for the determination of activated T cell populations in the blood and CD19 monoclonal antibody that reacts with CD19 antigen expressed on B cells was used for the estimation of B cell population. Tubes were incubated in dark for 30 min at room temperature. Subsequently, 2 ml of 1×FACS lyses solution was added at room temperature with gentle mixing and these samples were then spinned at (300-400×g). The supernatant was aspirated and samples were given 3 washings of phosphate buffer saline (pH 7.4). The resulting stained cell pellet was resuspended in 500 μl of phosphate buffer saline and was run on a flow cytometer. Acquisition and the analysis were done directly on flow cytometer using Cell Quest Pro software (BD Biosciences) (Bani et al., 2005, 2006).

CD3+ cell population = assay: Flow cytometric evaluation of cell-surface marker CD3+ in peripheral blood lymphocytes; type: in vivo, rats
Protocol: as §2, §3

Malondialdehyde (MDA) = assay: Measurement of lipid peroxidation (MDA) in brain of ICV STZ rats; conditions: for MDA (LP): brain homogenate, ICV STZ rats (STZ Control 415.21 ± 10.07)
Balb/C mice = conditions: mouse, in vivo, po, 1000 mg/kg
ICV STZ treated rats = assay: Single trial passive avoidance test after ICV injection of STZ; type: in vivo; conditions: for initial latency: day 19, ICV STZ rats; for mean retention latency: day 20, ICV STZ rats (STZ Control 173±28 s)
Protocol: as §2
Memory retention deficit was evaluated by a step through passive avoidance apparatus according to the method previously described by Mojard et al. (2007) on days 19th and 20th after 1st injection of STZ. On the acquisition trial, each rat was placed in the lighted chamber and after 60 s of habituation period, the guillotine door separating the lighted and dark chamber was opened, and the initial latency (IL) to enter the dark chamber was recorded. Immediately after the rat entered the dark chamber, the guillotine door was closed and an electric foot shock (75 V, 0.2 mA, 50 Hz) was delivered to the floor grids for 3 s. Five seconds later, the rat was removed from the dark chamber and returned to its home cage. Twenty-four hours later, the retention latency (RL) time was measured in the same way as in the acquisition trial, but foot shock was not delivered, and the latency time was recorded to a maximum of 600 s.

[4] = system: Reduced glutathione (GSH); assay: Estimation of reduced glutathione in brain of ICV STZ rats; type: in vivo; conditions: for GSH: brain homogenate, ICV STZ rats (STZ Control 223.21 ± 6.08)
Protocol: as §2
Reduced glutathione (GSH) in the brain was estimated according to the method described by Ellman (1959). 1 ml supernatant was precipitated with 1 ml of 4% sulfosalicylic acid and cold digested at 4° C. for 1 h. The samples were centrifuged at 1200×g for 15 min at 4° C. To 1 ml of this supernatant, 2.7 ml of phosphate buffer (0.1 M, pH 8) and 0.2 ml of 5,5′-dithiobis-(2-nitrobenzoic acid) (DTNB) were added. The yellow colour developed was read immediately at 412 nm using spectrophotometer. The results were calculated using the molar extinction coefficient of chromophore (1.36×104 M−1 cm−1) and expressed as a percentage of the control.

IC50 [1]: 25 µg/mL (≈ 142 µM) | Tyrosinase inhibition IC50 [2]: IC50—9.33 μg/ml
SMILES: O=C1O[C@H]([C@@H](O)CO)C(O)=C1O [Ascorbic acid, reference compound]

IC50 (TNF alpha; invitro): 114 µg/mL (≈ 694 µM)
SMILES: C=CCc1ccc(O)c(OC)c1 [Eugenol]
ORAC value (μmol trolox equivalents/g) [3]: 13921 μmol trolox equivalents/g

SMILES: C=CCc1ccc(O)c(O)c1 [HC, Hydroxychavicol]
expression of IFN-γ in CD3+ T cells (IFN-γ; HC 2 mg/kg p.o. (STZ Control 18.18±0.97%)): 12.08±0.21% | expression of IFN-γ in CD3+ T cells (IFN-γ; HC 4 mg/kg p.o. (STZ Control 18.18±0.97%)): 11.91±0.87% | mean percentage of CD19+ cells in the lymphocyte population (CD19+ cell population; HC 0.5 mg/kg p.o. (STZ Control 27.08±2.77%)): 21.43±1.39% | mean percentage of CD19+ cells in the lymphocyte population (CD19+ cell population; HC 1 mg/kg p.o. (STZ Control 27.08±2.77%)): 17.08±2.09% | mean percentage of CD19+ cells in the lymphocyte population (CD19+ cell population; HC 2 mg/kg p.o. (STZ Control 27.08±2.77%)): 16.97±1.88% | mean percentage of CD19+ cells in the lymphocyte population (CD19+ cell population; HC 4 mg/kg p.o. (STZ Control 27.08±2.77%)): 16.01±1.07% | IC50 [1]: 1.3 µg/mL (≈ 8.66 µM) | mean percentage of CD3+ cells in the lymphocyte population (CD3+ cell population; HC 0.5 mg/kg p.o. (STZ Control 62.21±4.65%)): 51.19±1.78% | mean percentage of CD3+ cells in the lymphocyte population (CD3+ cell population; HC 2 mg/kg p.o. (STZ Control 62.21±4.65%)): 45.28±3.43% | mean percentage of CD3+ cells in the lymphocyte population (CD3+ cell population; HC 4 mg/kg p.o. (STZ Control 62.21±4.65%)): 44.49±4.55% | MDA (LP) percentage activity against STZ Control group (suppression) (Malondialdehyde (MDA); HC 0.5 mg/kg p.o.): (27.47↓)* % | MDA (LP) (Malondialdehyde (MDA); HC 0.5 mg/kg p.o.): 301.15 ± 6.34 nmol/mg | MDA (LP) percentage activity against STZ Control group (suppression) (Malondialdehyde (MDA); HC 1.0 mg/kg p.o.): (39.26↓)* % | MDA (LP) (Malondialdehyde (MDA); HC 1.0 mg/kg p.o.): 252.18 ± 4.08 nmol/mg | MDA (LP) percentage activity against STZ Control group (suppression) (Malondialdehyde (MDA); HC 2.0 mg/kg p.o.): (42.87↓)* % | MDA (LP) (Malondialdehyde (MDA); HC 2.0 mg/kg p.o.): 237.19 ± 3.44 nmol/mg | MDA (LP) percentage activity against STZ Control group (suppression) (Malondialdehyde (MDA); HC 4.0 mg/kg p.o.): (46.85↓)* % | MDA (LP) (Malondialdehyde (MDA); HC 4.0 mg/kg p.o.): 220.68 ± 4.32 nmol/mg | untoward symptom or mortality, general behaviour (Balb/C mice): No untoward symptom or any mortality | IC50 (TNF alpha): 88.7 µg/mL (≈ 590 µM) | initial latency (ICV STZ treated rats; HC 0.5 mg/kg p.o.): 12.21 ± 1.42 s | initial latency (ICV STZ treated rats; HC 1 mg/kg p.o.): 17.33 ± 2.6 s | mean retention latency (ICV STZ treated rats; HC 1 mg/kg p.o.): 291.87 ± 25.66 s | initial latency (ICV STZ treated rats; HC 2 mg/kg p.o.): 15.92 ± 1.09 s | mean retention latency (ICV STZ treated rats; HC 2 mg/kg p.o.): 301.09 ± 13.67 s | initial latency (ICV STZ treated rats; HC 4 mg/kg p.o.): 18.21 ± 2.96 s | GSH percentage activity against STZ Control group (stimulation) ([4]; HC 0.5 mg/kg p.o.): (61.03↑)* % | GSH ([4]; HC 0.5 mg/kg p.o.): 359.44 ± 5.47 µg/g | GSH percentage activity against STZ Control group (stimulation) ([4]; HC 1.0 mg/kg p.o.): (62.52↑)* % | GSH ([4]; HC 1.0 mg/kg p.o.): 362.78 ± 6.24 µg/g | GSH percentage activity against STZ Control group (stimulation) ([4]; HC 2.0 mg/kg p.o.): (66.52↑)* % | GSH ([4]; HC 2.0 mg/kg p.o.): 371.69 ± 6.17 µg/g and 371.69 ± 6.117 µg/g | GSH percentage activity against STZ Control group (stimulation) ([4]; HC 4.0 mg/kg p.o.): (67.04↑)* % | GSH ([4]; HC 4.0 mg/kg p.o.): 372.87 ± 3.18 µg/g

IC50 (TNF alpha; invitro): 515 µg/mL (≈ 3140 µM)
SMILES: CC=Cc1ccc(O)c(OC)c1 [Isoeugenol]
ORAC value (μmol trolox equivalents/g) [3]: 15248 μmol trolox equivalents/g
